Each structure is given as a SMILES string. Read-outs that look alike come from different tables or passages of the source.

For series [1] the following is noted: human, in vivo, po.
Series [2] is described as follows: Mass balance study with [14C]vibegron in healthy subjects. The following applies: human plasma, 2 and 4 hr.
The subject of the next series is patients with OAB. In words: Phase 2b cardiovascular safety: orthostatic AEs, HR and BP changes. Conditions: tolterodine 4 mg. The series is classed as in vivo, human. The source says:
None led to discontinuation. The overall incidence of orthostatic symptoms was low.
Small differences in the percent of subjects exceeding categorical heart rate and blood pressure thresholds for vibegron were similar to those in the tolterodine arm.

The test system of the next series is men and women with OAB. Kind of series: Phase 2b efficacy study in men and women with OAB. Format: in vivo, human. The source says:
Part 2 was designed to continue to assess the safety and efficacy of concomitant dosing. […] Subjects in both Part 1 and Part 2 had the option of enrolling in a 1-year extension. Participants were required to keep a voiding diary, recording the occurrence of each strong urge, total incontinence, and urge incontinence episode. Efficacy data for Part 1 and Part 2 are summarized herein.
The total number of urgency incontinence episodes must have exceeded the total number of stress incontinence episodes for all subjects.
Conversely, a dose dependent effect on urge incontinence or total incontinence was not observed.

For series [3], the system named is patients with overactive bladder. In words: Phase 2 safety data, adverse events (main study and 52-week extension). Also on record: Drug-related AE, n subjects / Drug-related AE, % subjects / Discontinuation due to AE, n subjects / Discontinuation due to AE, % subjects / Discontinuation due to drug-related AE, n subjects / Dry eye, n subjects / Dry eye, % subjects / Constipation, n subjects / Constipation, % subjects / Diarrhea, n subjects / Diarrhea, % subjects / Dry mouth, n subjects / Dry mouth, % subjects / Alanine aminotransferase increased, n subjects / Alanine aminotransferase increased, % subjects / Aspartate aminotransferase increased, n subjects / Aspartate aminotransferase increased, % subjects / Arthralgia, n subjects / Arthralgia, % subjects / Dizziness, n subjects / Dizziness, % subjects / Dysuria, n subjects / Dysuria, % subjects: dose or concentration left out as unconfirmed. The source says: A placebo group was included in the main study, and a group that received tolterodine monotherapy was included in the main study and in the extension.

In another series the test system is QTc interval. Kind of series: Thorough QT study, single oral doses. The following applies: single dose 400 mg moxifloxacin.
[4] abbreviates: 3 consecutive post-baseline visits.
Where [5] appears, read: tolterodine ER 4 mg, OAB wet subjects.

As to `C#C[C@]1(O)CC[C@H]2[C@@H]3CCc4cc(O)ccc4[C@H]3CC[C@@]21C` [EE, ethinyl estradiol], the AUC of conmed, geometric mean in series [1] (0.03 mg) worked out at 0.81 ng·h/mL.

For the compound `C#C[C@]1(O)CC[C@H]2[C@@H]3CCC4=CC(=O)CC[C@@H]4[C@H]3CC[C@@]21CC` [LNG, levonorgestrel], the AUC of conmed, geometric mean in series [1] (0.15 mg) is 31 ng·h/mL.

Regarding `O=C(O)C1OC(OC(c2ccccc2)C2CCC(Cc3ccc(NC(=O)C4CCc5nccc(=O)n54)cc3)N2)C(O)C(O)C1O` (stereo not shown) [M7], the “share of total circulating drug-related material” value in series [2] is 12-14%.

Regarding `Cc1ccc(O)c([C@H](CCN(C(C)C)C(C)C)c2ccccc2)c1` [Tolterodine ER, tolterodine], in the series on patients with OAB, the “DBP change from baseline, mean (week 1)” value was −0.12 mm Hg; the “DBP change from baseline, mean maximum (week 1 to 8)” value worked out at 5.19 mm Hg; the “HR change from baseline, mean (week 1)” value was 0.68 bpm; the “HR change from baseline, mean maximum (week 1 to 8)” value was 5.66 bpm. Besides, in the series with patients with OAB, the “SBP change from baseline, mean (week 1)” value is recorded as 0.04 mm Hg and the “SBP change from baseline, mean maximum (week 1 to 8)” value stood at 7.29 mm Hg. Moreover, in the series on patients with OAB (setting [4]), the “DBP change from baseline ≥5 mm Hg, subjects” value was “(12.4) %”; the “DBP change from baseline ≥10 bpm, subjects” value is reported as “(5.4) %”; the “DBP change from baseline ≥15 bpm, subjects” value is on record as “(1.2) %”; the “HR change from baseline ≥5 mm Hg, subjects” value is recorded as “(12.0) %”. Besides, in the series with patients with OAB (setting [4]), the “HR change from baseline ≥10 bpm, subjects” value is on record as “(4.5) %”; the “HR change from baseline ≥15 bpm, subjects” value is “(1.7) %”; the “SBP change from baseline ≥5 mm Hg, subjects” value is listed as “(16.9) %”; the “SBP change from baseline ≥10 bpm, subjects” value was “(7.9) %”. Moreover, in the series with patients with OAB (setting [4]), the “SBP change from baseline ≥15 bpm, subjects” value is on record as “(2.9) %”. Moreover, in the series with men and women with OAB (tolterodine ER 4 mg), the “Micturitions, change from baseline Week 8, mean” value is recorded as −1.73; the “Micturitions, daily number, Week 8 mean” value came to 9.24; the “Micturitions, difference from placebo Week 8, difference in LS means” value is listed as −0.54; the “Urgency episodes, change from baseline Week 8, mean” value is recorded as −2.52. For the same compound, in the series with men and women with OAB (tolterodine ER 4 mg), the “Urgency episodes, daily number, Week 8 mean” value was found to be 3.91 and the “Urgency episodes, difference from placebo Week 8, difference in LS means” value is reported as −0.94. The “Change from baseline in volume voided per micturition, difference from placebo in LS means” value with men and women with OAB (tolterodine ER 4 mg once daily, Week 8) worked out at 30.77 mL. Moreover, in the series with men and women with OAB (setting [5]), the “Total incontinence episodes, change from baseline Week 8, mean” value is recorded as −1.80; the “Total incontinence episodes, daily number, Week 8 mean” value was found to be 1.32; the “Total incontinence episodes, difference from placebo Week 8, difference in LS means” value is on record as −0.34; the “Urgency incontinence episodes, change from baseline Week 8, mean” value was −1.67. In the series with men and women with OAB (setting [5]), the “Urgency incontinence episodes, daily number, Week 8 mean” value is 1.15 and the “Urgency incontinence episodes, difference from placebo Week 8, difference in LS means” value is −0.46. Also, in series [3] (4 mg, first 12 weeks), the “Accidental overdose, % subjects” value is given as “(2.3) %”; the “Accidental overdose, n subjects” value was determined as 6; the “Fatigue, % subjects” value is recorded as “(2.3) %”; the “Fatigue, n subjects” value is 6. In addition, in series [3] (4 mg, first 12 weeks), the “Headache, % subjects” value is listed as “(3.5) %”; the “Headache, n subjects” value is reported as 9; the “Nasopharyngitis, % subjects” value is on record as “(1.6) %”; the “Nasopharyngitis, n subjects” value worked out at 4. For the same compound, in series [3] (4 mg, first 12 weeks), the “Nausea, % subjects” value is “(2.3) %”; the “Nausea, n subjects” value was 6; the “Osteoarthritis, % subjects” value is “(0.0) %”; the “Osteoarthritis, n subjects” value came out at 0. In addition, in series [3] (4 mg, first 12 weeks), the “Pain in extremity, % subjects” value is on record as “(0.4) %”; the “Pain in extremity, n subjects” value was determined as 1; the “Serious AE, % subjects” value was “(1.2) %”; the “Serious AE, n subjects” value is reported as 3. Besides, in series [3] (4 mg, first 12 weeks), the “Sinusitis, % subjects” value is “(0.4) %”; the “Sinusitis, n subjects” value worked out at 1; the “Urinary tract infection, % subjects” value is reported as “(4.7) %”; the “Urinary tract infection, n subjects” value is 12. In series [3] (4 mg, first 12 weeks), the “≥1 AE, % subjects” value was “(45.1) %” and the “≥1 AE, n subjects” value is recorded as 116. For the same compound, in series [3] (Phase 2 study arms), the frequency of injuries was 2.1%. Further, in series [3] (first 12 weeks), the “Alanine aminotransferase increased, % subjects” value is given as “(0.4) %”; the “Alanine aminotransferase increased, n subjects” value is 1; the “Arthralgia, % subjects” value was “(1.2) %”; the “Arthralgia, n subjects” value turned out to be 3. For the same compound, in series [3] (first 12 weeks), the “Aspartate aminotransferase increased, % subjects” value is “(0.0) %”; the “Aspartate aminotransferase increased, n subjects” value is 0; the “Constipation, % subjects” value is reported as “(1.9) %”; the “Constipation, n subjects” value is on record as 5. In series [3] (first 12 weeks), the “Diarrhea, % subjects” value is given as “(3.5) %”; the “Diarrhea, n subjects” value was determined as 9; the “Discontinuation due to AE, % subjects” value is recorded as “(1.6) %”; the “Discontinuation due to AE, n subjects” value worked out at 4. Moreover, in series [3] (first 12 weeks), the “Discontinuation due to drug-related AE, n subjects” value is recorded as 0; the “Dizziness, % subjects” value was “(1.9) %”; the “Dizziness, n subjects” value was determined as 5; the “Drug-related AE, % subjects” value is given as “(16.3) %”. In series [3] (first 12 weeks), the “Drug-related AE, n subjects” value came out at 42; the “Dry eye, % subjects” value is on record as “(3.9) %”; the “Dry eye, n subjects” value amounted to 10; the “Dry mouth, % subjects” value is reported as “(8.6) %”. In addition, in series [3] (first 12 weeks), the “Dry mouth, n subjects” value came out at 22; the “Dysuria, % subjects” value is on record as “(1.2) %”; the “Dysuria, n subjects” value was 3. For the same compound, the SAEs reported in series [3] (tolterodine 4 mg, main study) is 3.

For the compound `COc1c(N2C[C@@H]3CCCN[C@@H]3C2)c(F)cc2c(=O)c(C(=O)O)cn(C3CC3)c12` [moxifloxacin, reference compound], the “effect on QTcF” value in the series with QTc interval was “statistically significant effect”.

The values are drawn from patent US20230218624A1 (Urovant Sciences GmbH, priority 2017, published 2023).
